81 compounds from the Kinase Knowledgebase extract (Sharma et al. 2016) can be followed below.

Usually Ki stands for the dissociation constant of the complex between target and ligand, obtained from inhibition or displacement. A high value points to weaker binding. What is called inhibition is the change of the read-out against control, counted positive when it falls.

One test deals with CDK2 (UniProt P24941). Description: Enzyme Assay.
Conditions: not given
For `Cn1cccc1CNC(=O)c1ccc(Nc2nc(N)c(C(=O)c3c(F)cccc3F)s2)cc1`, the Ki amounted to 20 nM.

In turn, `C[C@H](CN(C)C)N(C)C(=O)c1ccc(Nc2nc(N)c(C(=O)c3c(F)cccc3F)s2)cc1` yielded a Ki of 111 nM.

The same test, now with this note: concentration not given here.
Take `CN(C)CCN1CCN(C(=O)c2ccc(Nc3nc(N)c(C(=O)c4c(F)cccc4F)s3)cc2)CC1`: the inhibition is -17%.

Regarding `COc1ccc(C(=O)NC(=O)c2ccc(Nc3nc(N)c(C(=O)c4c(F)cccc4F)s3)cc2)cc1N`, the inhibition worked out at 15%.

In the case of `Nc1nc(Nc2ccc(C(=O)NCCCCCCO)cc2)sc1C(=O)c1c(F)cccc1F`, the inhibition is -5%.

For the compound `CCN(C(=O)c1ccc(Nc2nc(N)c(C(=O)c3c(F)cccc3F)s2)cc1)C1CCCCC1`, the inhibition was -10%.

With `CCCCN(Cc1ccccc1)C(=O)c1ccc(Nc2nc(N)c(C(=O)c3c(F)cccc3F)s2)cc1`, the inhibition was -17%.

`Nc1nc(Nc2ccc(C(=O)NCCc3ccc(Cl)cc3)cc2)sc1C(=O)c1c(F)cccc1F`: the inhibition worked out at 0%.

Turning to `C=C(C)CN(C)C(=O)c1ccc(Nc2nc(N)c(C(=O)c3c(F)cccc3F)s2)cc1`, the inhibition was -2%.

For `Nc1nc(Nc2ccc(C(=O)Nc3ccc4ncsc4c3)cc2)sc1C(=O)c1c(F)cccc1F`, the inhibition was determined as 13%.

Turning to `Nc1nc(Nc2ccc(C(=O)NCCOCCO)cc2)sc1C(=O)c1c(F)cccc1F`, the inhibition is -9%.

For the compound `N#CCCN(Cc1cccnc1)C(=O)c1ccc(Nc2nc(N)c(C(=O)c3c(F)cccc3F)s2)cc1`, the inhibition is -2%.

On to `CCCCN(CC#N)C(=O)c1ccc(Nc2nc(N)c(C(=O)c3c(F)cccc3F)s2)cc1`, for which the inhibition is -1%.

Regarding `CC(=O)c1ccc(NC(=O)c2ccc(Nc3nc(N)c(C(=O)c4c(F)cccc4F)s3)cc2)cc1`, the inhibition was -5%.

With `CCCCC(CC)NC(=O)c1ccc(Nc2nc(N)c(C(=O)c3c(F)cccc3F)s2)cc1` (stereo unspecified), the inhibition was -30%.

`Cc1cccc(CN(C)C(=O)c2ccc(Nc3nc(N)c(C(=O)c4c(F)cccc4F)s3)cc2)n1`: the inhibition was -1%.

`CCC(C)CN(CCO)C(=O)c1ccc(Nc2nc(N)c(C(=O)c3c(F)cccc3F)s2)cc1` (stereo unspecified): the inhibition is -11%.

As to `Nc1nc(Nc2ccc(C(=O)N3CCN(CCO)CC3)cc2)sc1C(=O)c1c(F)cccc1F`, the inhibition is -43%.

For `Cc1nccc(-c2cccc(NC(=O)c3ccc(Nc4nc(N)c(C(=O)c5c(F)cccc5F)s4)cc3)c2)n1`, the inhibition was -40%.

As for `CCN(C)C(=O)c1ccc(Nc2nc(N)c(C(=O)c3c(F)cccc3F)s2)cc1`, the inhibition was -12%.

Consider `Nc1nc(Nc2ccc(C(=O)NCC3CC3)cc2)sc1C(=O)c1c(F)cccc1F`, for which the inhibition is 0%.

As to `COCCN(C)C(=O)c1ccc(Nc2nc(N)c(C(=O)c3c(F)cccc3F)s2)cc1`, the inhibition is -16%.

As to `CSc1ccc(NC(=O)c2ccc(Nc3nc(N)c(C(=O)c4c(F)cccc4F)s3)cc2)cc1`, the inhibition was -25%.

Turning to `Cc1cc(NC(=O)c2ccc(Nc3nc(N)c(C(=O)c4c(F)cccc4F)s3)cc2)ccc1C(C)C`, the inhibition is -5%.

Consider `Cc1ccc(CCNC(=O)c2ccc(Nc3nc(N)c(C(=O)c4c(F)cccc4F)s3)cc2)cc1`, for which the inhibition was 14%.

As for `CCN(CC)CCN1CCN(C(=O)c2ccc(Nc3nc(N)c(C(=O)c4c(F)cccc4F)s3)cc2)CC1`, the inhibition is -10%.

`CC1CN(C(=O)c2ccc(Nc3nc(N)c(C(=O)c4c(F)cccc4F)s3)cc2)CC(C)O1` (stereo unspecified): the inhibition is -10%.

Regarding `CN(C)C(=O)CN(C)C(=O)c1ccc(Nc2nc(N)c(C(=O)c3c(F)cccc3F)s2)cc1`, the inhibition was -23%.

On to `CCOC(=O)/C=C/c1ccc(Nc2nc(N)c(C(=O)c3c(F)cccc3F)s2)cc1`, for which the inhibition was -3%.

Consider `CCN(CCO)C(=O)c1ccc(Nc2nc(N)c(C(=O)c3c(F)cccc3F)s2)cc1`, for which the inhibition is -16%.

Consider `COCC(C)NC(=O)c1ccc(Nc2nc(N)c(C(=O)c3c(F)cccc3F)s2)cc1` (stereo unspecified), for which the inhibition was -2%.

Turning to `CC(C)CCCC(C)NC(=O)c1ccc(Nc2nc(N)c(C(=O)c3c(F)cccc3F)s2)cc1` (stereo unspecified), the inhibition was determined as 0%.

Regarding `Cc1ccc(NC(=O)c2ccc(Nc3nc(N)c(C(=O)c4c(F)cccc4F)s3)cc2)cc1Cl`, the inhibition is -1%.

Turning to `CN(Cc1ccccc1)C(=O)c1ccc(Nc2nc(N)c(C(=O)c3c(F)cccc3F)s2)cc1`, the inhibition is -1%.

As to `C[C@@H](NC(=O)c1ccc(Nc2nc(N)c(C(=O)c3c(F)cccc3F)s2)cc1)C1CCCCC1`, the inhibition is -18%.

With `CCN(CC)CCN(C)C(=O)c1ccc(Nc2nc(N)c(C(=O)c3c(F)cccc3F)s2)cc1`, the inhibition is -9%.

For the compound `CN1CCN(C(=O)c2ccc(Nc3nc(N)c(C(=O)c4c(F)cccc4F)s3)cc2)CC1`, the inhibition was -9%.

Regarding `CC(C)(C)C1CCC(NC(=O)c2ccc(Nc3nc(N)c(C(=O)c4c(F)cccc4F)s3)cc2)CC1` (stereo unspecified), the inhibition is -23%.

As to `Nc1nc(Nc2ccc(C(=O)NCCCO)cc2)sc1C(=O)c1c(F)cccc1F`, the inhibition is -2%.

With `CC(=O)N(C)C1CCN(C(=O)c2ccc(Nc3nc(N)c(C(=O)c4c(F)cccc4F)s3)cc2)C1` (stereo unspecified), the inhibition is -21%.

For the compound `COc1ccc(CNC(=O)c2ccc(Nc3nc(N)c(C(=O)c4c(F)cccc4F)s3)cc2)cc1OC`, the inhibition was -2%.

`CCOc1ccccc1CCNC(=O)c1ccc(Nc2nc(N)c(C(=O)c3c(F)cccc3F)s2)cc1`: the inhibition was -19%.

`C#CCCN(C)C(=O)c1ccc(Nc2nc(N)c(C(=O)c3c(F)cccc3F)s2)cc1`: the inhibition amounted to 0%.

Consider `Nc1nc(Nc2ccc(C(=O)N3CCC(CO)CC3)cc2)sc1C(=O)c1c(F)cccc1F`, for which the inhibition was -14%.

With `CCSCCNC(=O)c1ccc(Nc2nc(N)c(C(=O)c3c(F)cccc3F)s2)cc1`, the inhibition was -6%.

In the case of `Nc1nc(Nc2ccc(C(=O)Nc3ccc(Cl)cc3)cc2)sc1C(=O)c1c(F)cccc1F`, the inhibition is -10%.

As to `CCCN(CC1CC1)C(=O)c1ccc(Nc2nc(N)c(C(=O)c3c(F)cccc3F)s2)cc1`, the inhibition is -3%.

`Nc1nc(Nc2ccc(C(=O)N3CCCC3)cc2)sc1C(=O)c1c(F)cccc1F`: the inhibition is -15%.

With `Cc1ccc(NC(=O)c2ccc(Nc3nc(N)c(C(=O)c4c(F)cccc4F)s3)cc2)c(F)c1`, the inhibition is -30%.

In the case of `Nc1nc(Nc2ccc(C(=O)NCC(O)CO)cc2)sc1C(=O)c1c(F)cccc1F` (stereo unspecified), the inhibition is -2%.

Take `Cc1cccc(N2CCN(C(=O)c3ccc(Nc4nc(N)c(C(=O)c5c(F)cccc5F)s4)cc3)CC2C)c1` (stereo unspecified): the inhibition is -23%.

With `Nc1nc(Nc2ccc(C(=O)Nc3ccc(Cl)nc3)cc2)sc1C(=O)c1c(F)cccc1F`, the inhibition is -9%.

As for `C=CCN(CC=C)C(=O)c1ccc(Nc2nc(N)c(C(=O)c3c(F)cccc3F)s2)cc1`, the inhibition is -20%.

Take `CN(CC(O)CO)C(=O)c1ccc(Nc2nc(N)c(C(=O)c3c(F)cccc3F)s2)cc1` (stereo unspecified): the inhibition came to 0%.

Regarding `Cc1cc(C)cc(NC(=O)c2ccc(Nc3nc(N)c(C(=O)c4c(F)cccc4F)s3)cc2)c1`, the inhibition was -3%.

For the compound `Nc1nc(Nc2ccc(C(=O)NCCc3ccncc3)cc2)sc1C(=O)c1c(F)cccc1F`, the inhibition was -11%.

Regarding `CN(C)CCCCNC(=O)c1ccc(Nc2nc(N)c(C(=O)c3c(F)cccc3F)s2)cc1`, the inhibition was -4%.

Regarding `Cc1cc(NC(=O)c2ccc(Nc3nc(N)c(C(=O)c4c(F)cccc4F)s3)cc2)ccc1F`, the inhibition was -1%.

For the compound `Cc1cccc(Cl)c1NC(=O)c1ccc(Nc2nc(N)c(C(=O)c3c(F)cccc3F)s2)cc1`, the inhibition was -12%.

`Nc1nc(Nc2ccc(C(=O)NCCc3c(Cl)cccc3Cl)cc2)sc1C(=O)c1c(F)cccc1F`: the inhibition was -21%.

In the case of `Nc1nc(Nc2ccc(C(=O)NCCCCO)cc2)sc1C(=O)c1c(F)cccc1F`, the inhibition was -12%.

As to `Nc1nc(Nc2ccc(C(=O)N3CCCCC3CCO)cc2)sc1C(=O)c1c(F)cccc1F` (stereo unspecified), the inhibition was -24%.

For `Nc1nc(Nc2ccc(C(=O)NCCCCCO)cc2)sc1C(=O)c1c(F)cccc1F`, the inhibition is -4%.

On to `CCN(CC)CCCN(C)C(=O)c1ccc(Nc2nc(N)c(C(=O)c3c(F)cccc3F)s2)cc1`, for which the inhibition was -27%.

Consider `Nc1nc(Nc2ccc(C(=O)Nc3cccc(Br)c3)cc2)sc1C(=O)c1c(F)cccc1F`, for which the inhibition is -8%.

With `CC(C)C[C@@H](CO)NC(=O)c1ccc(Nc2nc(N)c(C(=O)c3c(F)cccc3F)s2)cc1`, the inhibition is -16%.

Turning to `CCOCCNC(=O)c1ccc(Nc2nc(N)c(C(=O)c3c(F)cccc3F)s2)cc1`, the inhibition is -4%.

For `CCCCN(CCCCO)C(=O)c1ccc(Nc2nc(N)c(C(=O)c3c(F)cccc3F)s2)cc1`, the inhibition is -12%.

Take `CCCCN(CCO)C(=O)c1ccc(Nc2nc(N)c(C(=O)c3c(F)cccc3F)s2)cc1`: the inhibition was -7%.

On to `CN(C)CCCN1CCN(C(=O)c2ccc(Nc3nc(N)c(C(=O)c4c(F)cccc4F)s3)cc2)CC1`, for which the inhibition was -14%.

For the compound `CCOc1cccc(NC(=O)c2ccc(Nc3nc(N)c(C(=O)c4c(F)cccc4F)s3)cc2)c1`, the inhibition was -7%.

As to `CN(C)CCCCCCNC(=O)c1ccc(Nc2nc(N)c(C(=O)c3c(F)cccc3F)s2)cc1`, the inhibition is -16%.

Take `CC(C)N(Cc1ccccc1)c1ccc(NC(=O)c2ccc(Nc3nc(N)c(C(=O)c4c(F)cccc4F)s3)cc2)cc1`: the inhibition was -4%.

With `Nc1nc(Nc2ccc(O)cc2)sc1C(=O)c1c(F)cccc1F`, the inhibition worked out at 23%.

Regarding `Nc1nc(Nc2ccc(C(=O)Nc3cccc(F)c3)cc2)sc1C(=O)c1c(F)cccc1F`, the inhibition was -6%.

For `Nc1nc(Nc2ccc(C(=O)Nc3ccc(Cl)cc3CO)cc2)sc1C(=O)c1c(F)cccc1F`, the inhibition was -11%.

For the compound `CCCN(CCC#N)C(=O)c1ccc(Nc2nc(N)c(C(=O)c3c(F)cccc3F)s2)cc1`, the inhibition was -12%.

`CCCCN(CCCC)C(=O)c1ccc(Nc2nc(N)c(C(=O)c3c(F)cccc3F)s2)cc1`: the inhibition is -7%.

For the compound `CN(Cc1ccccc1Cl)C(=O)c1ccc(Nc2nc(N)c(C(=O)c3c(F)cccc3F)s2)cc1`, the inhibition was -30%.

As for `Nc1nc(Nc2ccc(C(=O)NCCCN3CCCC3=O)cc2)sc1C(=O)c1c(F)cccc1F`, the inhibition was -23%.

With `Nc1nc(Nc2ccc(C(=O)Nc3cccc(OC(F)(F)F)c3)cc2)sc1C(=O)c1c(F)cccc1F`, the inhibition was -31%.
